The text below walks through data of ChEMBL document CHEMBL5678818, “Discovery of potent SOS1 inhibitors that block RAS activation via disruption of the RAS-SOS1 interaction” (Proc Natl Acad Sci U S A, 2019).

In assay [1] the target is Dual specificity mitogen-activated protein kinase kinase 1 (Homo sapiens) (UniProt Q02750). Briefly: Inhibition of MEK1 (unknown origin) assessed as residual activity at 1000 nM by KINOMEscan analysis relative to control.
Assay [2] has as its target RAF proto-oncogene serine/threonine-protein kinase (Homo sapiens) (UniProt P04049). Description: Inhibition of RAF1 (unknown origin) assessed as residual activity at 1000 nM by KINOMEscan analysis relative to control.
The target of assay [3] is T1, MAP/microtubule affinity-regulating kinase 4 (Homo sapiens) (UniProt Q96L34).
T1 sequence (whole entry): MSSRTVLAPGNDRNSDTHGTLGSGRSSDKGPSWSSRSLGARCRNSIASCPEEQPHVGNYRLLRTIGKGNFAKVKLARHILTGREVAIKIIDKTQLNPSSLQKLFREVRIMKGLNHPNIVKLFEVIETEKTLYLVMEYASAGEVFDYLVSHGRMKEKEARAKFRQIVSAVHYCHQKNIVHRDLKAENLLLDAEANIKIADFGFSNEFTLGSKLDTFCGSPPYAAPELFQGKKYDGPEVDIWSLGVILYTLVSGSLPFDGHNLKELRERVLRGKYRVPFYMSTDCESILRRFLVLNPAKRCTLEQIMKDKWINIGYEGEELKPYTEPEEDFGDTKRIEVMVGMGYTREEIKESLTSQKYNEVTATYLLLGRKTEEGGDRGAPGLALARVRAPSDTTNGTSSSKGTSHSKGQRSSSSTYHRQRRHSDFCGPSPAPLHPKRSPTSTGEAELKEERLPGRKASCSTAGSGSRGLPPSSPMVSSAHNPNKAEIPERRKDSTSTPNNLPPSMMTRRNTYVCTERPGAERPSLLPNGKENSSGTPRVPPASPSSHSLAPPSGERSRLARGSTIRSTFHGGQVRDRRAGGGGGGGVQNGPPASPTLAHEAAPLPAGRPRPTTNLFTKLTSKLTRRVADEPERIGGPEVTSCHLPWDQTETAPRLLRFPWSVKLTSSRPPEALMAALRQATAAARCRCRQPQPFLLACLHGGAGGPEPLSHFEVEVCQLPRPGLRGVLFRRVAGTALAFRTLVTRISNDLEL
Briefly: Inhibition of MARK4 (unknown origin) assessed as residual activity at 1000 nM by KINOMEscan analysis relative to control.

For assay [4], the target named is T2, Casein kinase I isoform alpha-like (Homo sapiens) (UniProt Q8N752).
T2 sequence (whole entry): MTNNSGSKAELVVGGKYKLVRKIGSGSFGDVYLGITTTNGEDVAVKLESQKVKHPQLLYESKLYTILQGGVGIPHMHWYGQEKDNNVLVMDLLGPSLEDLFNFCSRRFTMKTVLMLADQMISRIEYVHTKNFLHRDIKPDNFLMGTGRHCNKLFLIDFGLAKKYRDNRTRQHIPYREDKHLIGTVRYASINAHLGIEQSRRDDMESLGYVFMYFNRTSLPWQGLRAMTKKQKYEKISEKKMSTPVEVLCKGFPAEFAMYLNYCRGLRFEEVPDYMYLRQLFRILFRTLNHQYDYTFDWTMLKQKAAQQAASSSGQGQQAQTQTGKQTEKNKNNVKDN
Briefly: Inhibition of CSNK1A1L (unknown origin) assessed as residual activity at 1000 nM by KINOMEscan analysis relative to control.

For assay [5], the target named is Ribosomal protein S6 kinase alpha-5 (Homo sapiens) (UniProt O75582). Description: Inhibition of C-terminal RPS6KA5 kinetic domain 2 (unknown origin) assessed as residual activity at 1000 nM by KINOMEscan analysis relative to control.
For assay [6], the target named is Calcium/calmodulin-dependent protein kinase type II subunit alpha (Homo sapiens) (UniProt Q9UQM7). Briefly: Inhibition of CAMK2A (unknown origin) assessed as residual activity at 1000 nM by KINOMEscan analysis relative to control.
The target of assay [7] is Wee1-like protein kinase 2 (Homo sapiens) (UniProt P0C1S8). Description: Inhibition of WEE2 (unknown origin) assessed as residual activity at 1000 nM by KINOMEscan analysis relative to control.
The target in assay [8] is Activin receptor type-1 (Homo sapiens) (UniProt Q04771). Description: Inhibition of ACVR1 (unknown origin) assessed as residual activity at 1000 nM by KINOMEscan analysis relative to control.
The target in assay [9] is Receptor tyrosine-protein kinase erbB-3 (Homo sapiens) (UniProt P21860). Briefly: Inhibition of ERBB3 (unknown origin) assessed as residual activity at 1000 nM by KINOMEscan analysis relative to control.
For assay [10], the target named is Protein kinase C eta type (Homo sapiens) (UniProt P24723). Briefly: Inhibition of PRKCH (unknown origin) assessed as residual activity at 1000 nM by KINOMEscan analysis relative to control.
In assay [11] the target is Cyclin-dependent kinase 17 (Homo sapiens) (UniProt Q00537). Briefly: Inhibition of PCTK2 (unknown origin) assessed as residual activity at 1000 nM by KINOMEscan analysis relative to control.
Assay [12] concerns the target Ribosomal protein S6 kinase alpha-5 (Homo sapiens) (UniProt O75582). Description: Inhibition of N-terminal RPS6KA5 kinetic domain 1 (unknown origin) assessed as residual activity at 1000 nM by KINOMEscan analysis relative to control.
Assay [13] deals with Platelet-derived growth factor receptor beta (Homo sapiens) (UniProt P09619). Briefly: Inhibition of PDGFRB (unknown origin) assessed as residual activity at 1000 nM by KINOMEscan analysis relative to control.
The target in assay [14] is Phosphatidylinositol 4,5-bisphosphate 3-kinase catalytic subunit beta isoform (Homo sapiens) (UniProt P42338). Description: Inhibition of PIK3CB (unknown origin) assessed as residual activity at 1000 nM by KINOMEscan analysis relative to control.
Assay [15] concerns the target T3, Phosphorylase b kinase gamma catalytic chain, liver/testis isoform (Homo sapiens) (UniProt P15735).
T3 sequence (whole entry): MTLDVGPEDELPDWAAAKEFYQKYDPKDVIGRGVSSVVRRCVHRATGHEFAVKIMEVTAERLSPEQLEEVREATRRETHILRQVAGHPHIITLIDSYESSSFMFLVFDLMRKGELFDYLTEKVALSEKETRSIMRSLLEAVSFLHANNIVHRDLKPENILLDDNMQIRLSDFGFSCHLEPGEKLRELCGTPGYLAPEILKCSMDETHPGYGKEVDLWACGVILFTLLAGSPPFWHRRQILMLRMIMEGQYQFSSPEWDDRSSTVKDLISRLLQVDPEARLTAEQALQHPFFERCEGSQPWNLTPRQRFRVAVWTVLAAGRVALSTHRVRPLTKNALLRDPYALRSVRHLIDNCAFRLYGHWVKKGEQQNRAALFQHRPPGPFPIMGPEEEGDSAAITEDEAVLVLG
Description: Inhibition of PHKG2 (unknown origin) assessed as residual activity at 1000 nM by KINOMEscan analysis relative to control.

The target in assay [16] is Serine/threonine-protein kinase SIK3 (Homo sapiens) (UniProt Q9Y2K2). Description: Inhibition of QSK (unknown origin) assessed as residual activity at 1000 nM by KINOMEscan analysis relative to control.
The target of assay [17] is Vascular endothelial growth factor receptor 1 (Homo sapiens) (UniProt P17948). Description: Inhibition of FLT1 (unknown origin) assessed as residual activity at 1000 nM by KINOMEscan analysis relative to control.

Chain of Ribosomal protein S6 kinase alpha-5 (Homo sapiens) (O75582 whole entry, looked up, the tested form may be a part): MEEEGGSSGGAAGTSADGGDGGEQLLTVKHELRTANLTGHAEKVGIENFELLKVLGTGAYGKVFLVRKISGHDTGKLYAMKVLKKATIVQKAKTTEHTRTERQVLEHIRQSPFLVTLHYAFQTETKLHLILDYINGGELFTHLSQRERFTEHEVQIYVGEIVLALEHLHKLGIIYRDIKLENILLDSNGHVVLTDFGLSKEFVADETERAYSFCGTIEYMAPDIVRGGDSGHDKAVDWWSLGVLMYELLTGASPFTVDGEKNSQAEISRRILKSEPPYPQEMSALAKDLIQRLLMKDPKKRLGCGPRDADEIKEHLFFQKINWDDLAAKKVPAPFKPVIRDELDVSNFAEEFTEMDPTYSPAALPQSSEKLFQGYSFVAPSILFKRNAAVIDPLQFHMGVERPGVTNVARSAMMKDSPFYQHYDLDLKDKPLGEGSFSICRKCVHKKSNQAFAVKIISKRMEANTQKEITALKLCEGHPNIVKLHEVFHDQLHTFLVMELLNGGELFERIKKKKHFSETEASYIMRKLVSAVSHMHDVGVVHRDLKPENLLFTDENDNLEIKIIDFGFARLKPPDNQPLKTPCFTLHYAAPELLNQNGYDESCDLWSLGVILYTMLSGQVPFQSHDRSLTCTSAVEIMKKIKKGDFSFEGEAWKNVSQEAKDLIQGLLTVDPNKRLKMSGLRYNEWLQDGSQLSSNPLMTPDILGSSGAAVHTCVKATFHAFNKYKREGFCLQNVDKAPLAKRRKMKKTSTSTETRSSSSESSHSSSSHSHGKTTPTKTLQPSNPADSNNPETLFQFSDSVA
Chain of Calcium/calmodulin-dependent protein kinase type II subunit alpha (Homo sapiens) (Q9UQM7 whole entry): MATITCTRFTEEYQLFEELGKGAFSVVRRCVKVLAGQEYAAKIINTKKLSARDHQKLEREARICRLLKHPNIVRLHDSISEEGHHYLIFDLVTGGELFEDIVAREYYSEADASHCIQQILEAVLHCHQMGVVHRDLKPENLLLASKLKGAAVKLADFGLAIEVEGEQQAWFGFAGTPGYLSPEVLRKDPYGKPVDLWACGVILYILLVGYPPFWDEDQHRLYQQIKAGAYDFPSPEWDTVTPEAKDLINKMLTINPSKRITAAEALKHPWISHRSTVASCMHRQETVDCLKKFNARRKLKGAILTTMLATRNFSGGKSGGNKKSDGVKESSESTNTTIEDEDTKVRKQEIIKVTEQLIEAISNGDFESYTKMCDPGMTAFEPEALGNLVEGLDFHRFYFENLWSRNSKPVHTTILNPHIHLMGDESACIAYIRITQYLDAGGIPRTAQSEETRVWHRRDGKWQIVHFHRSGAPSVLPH
Chain of Phosphatidylinositol 4,5-bisphosphate 3-kinase catalytic subunit beta isoform (Homo sapiens) (P42338 whole entry, looked up, canonical isoform): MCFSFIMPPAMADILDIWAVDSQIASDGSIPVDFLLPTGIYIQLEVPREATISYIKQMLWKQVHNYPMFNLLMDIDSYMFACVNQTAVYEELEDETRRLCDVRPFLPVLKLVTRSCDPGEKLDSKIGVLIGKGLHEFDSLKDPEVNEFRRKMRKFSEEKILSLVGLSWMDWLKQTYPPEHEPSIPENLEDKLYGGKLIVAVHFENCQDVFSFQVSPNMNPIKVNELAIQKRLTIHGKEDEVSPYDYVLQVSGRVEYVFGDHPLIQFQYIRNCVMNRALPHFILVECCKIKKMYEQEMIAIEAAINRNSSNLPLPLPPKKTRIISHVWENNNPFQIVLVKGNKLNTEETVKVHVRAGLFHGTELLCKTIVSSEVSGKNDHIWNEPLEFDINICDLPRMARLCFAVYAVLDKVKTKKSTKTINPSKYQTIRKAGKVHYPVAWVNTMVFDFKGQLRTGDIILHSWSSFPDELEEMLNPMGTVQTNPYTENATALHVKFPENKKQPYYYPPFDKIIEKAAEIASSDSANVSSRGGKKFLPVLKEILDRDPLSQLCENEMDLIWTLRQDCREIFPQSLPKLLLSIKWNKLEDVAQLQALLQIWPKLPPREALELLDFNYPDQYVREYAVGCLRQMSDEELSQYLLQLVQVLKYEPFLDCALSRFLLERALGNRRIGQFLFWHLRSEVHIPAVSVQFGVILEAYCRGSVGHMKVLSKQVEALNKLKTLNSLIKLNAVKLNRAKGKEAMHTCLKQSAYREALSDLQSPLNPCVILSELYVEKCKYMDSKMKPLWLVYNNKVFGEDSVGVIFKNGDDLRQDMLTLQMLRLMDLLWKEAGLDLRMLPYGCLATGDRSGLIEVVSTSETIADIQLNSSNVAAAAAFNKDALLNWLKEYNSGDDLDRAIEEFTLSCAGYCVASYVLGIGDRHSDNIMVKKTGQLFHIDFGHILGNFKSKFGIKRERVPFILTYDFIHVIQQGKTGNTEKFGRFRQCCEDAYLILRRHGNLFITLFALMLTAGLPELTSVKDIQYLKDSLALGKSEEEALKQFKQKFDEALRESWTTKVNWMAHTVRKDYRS
Chain of RAF proto-oncogene serine/threonine-protein kinase (Homo sapiens) (P04049 whole entry): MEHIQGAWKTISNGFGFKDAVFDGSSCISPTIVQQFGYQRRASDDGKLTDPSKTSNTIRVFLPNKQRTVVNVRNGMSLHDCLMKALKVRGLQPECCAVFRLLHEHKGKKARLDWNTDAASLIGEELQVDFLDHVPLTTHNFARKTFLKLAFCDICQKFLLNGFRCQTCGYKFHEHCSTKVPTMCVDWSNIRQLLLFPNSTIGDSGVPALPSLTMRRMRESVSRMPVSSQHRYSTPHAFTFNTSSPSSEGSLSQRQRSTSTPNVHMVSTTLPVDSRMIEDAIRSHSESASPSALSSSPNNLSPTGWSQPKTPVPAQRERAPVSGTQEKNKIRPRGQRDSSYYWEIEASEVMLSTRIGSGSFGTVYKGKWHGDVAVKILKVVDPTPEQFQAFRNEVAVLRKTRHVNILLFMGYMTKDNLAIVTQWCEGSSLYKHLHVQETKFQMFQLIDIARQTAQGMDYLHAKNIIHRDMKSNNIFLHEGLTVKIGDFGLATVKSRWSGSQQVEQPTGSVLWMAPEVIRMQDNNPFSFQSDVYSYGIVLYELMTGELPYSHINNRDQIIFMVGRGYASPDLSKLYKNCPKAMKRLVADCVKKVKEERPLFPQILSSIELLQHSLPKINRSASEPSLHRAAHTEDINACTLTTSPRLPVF
Chain of Cyclin-dependent kinase 17 (Homo sapiens) (Q00537 whole entry, looked up, the tested form may be a part): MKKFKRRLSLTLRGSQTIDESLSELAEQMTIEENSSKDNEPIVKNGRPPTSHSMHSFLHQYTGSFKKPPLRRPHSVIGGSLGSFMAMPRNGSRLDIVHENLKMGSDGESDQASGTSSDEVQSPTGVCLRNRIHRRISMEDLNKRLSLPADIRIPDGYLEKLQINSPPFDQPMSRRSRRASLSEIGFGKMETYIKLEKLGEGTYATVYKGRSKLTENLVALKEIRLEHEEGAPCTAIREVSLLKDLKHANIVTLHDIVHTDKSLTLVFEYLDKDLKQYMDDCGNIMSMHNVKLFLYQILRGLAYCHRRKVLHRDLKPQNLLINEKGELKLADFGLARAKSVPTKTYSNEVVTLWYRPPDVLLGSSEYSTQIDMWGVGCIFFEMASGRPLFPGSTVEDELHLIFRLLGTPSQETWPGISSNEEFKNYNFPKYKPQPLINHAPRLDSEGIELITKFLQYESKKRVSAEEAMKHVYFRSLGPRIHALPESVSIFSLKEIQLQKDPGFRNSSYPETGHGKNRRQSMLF
Chain of Protein kinase C eta type (Homo sapiens) (P24723 whole entry): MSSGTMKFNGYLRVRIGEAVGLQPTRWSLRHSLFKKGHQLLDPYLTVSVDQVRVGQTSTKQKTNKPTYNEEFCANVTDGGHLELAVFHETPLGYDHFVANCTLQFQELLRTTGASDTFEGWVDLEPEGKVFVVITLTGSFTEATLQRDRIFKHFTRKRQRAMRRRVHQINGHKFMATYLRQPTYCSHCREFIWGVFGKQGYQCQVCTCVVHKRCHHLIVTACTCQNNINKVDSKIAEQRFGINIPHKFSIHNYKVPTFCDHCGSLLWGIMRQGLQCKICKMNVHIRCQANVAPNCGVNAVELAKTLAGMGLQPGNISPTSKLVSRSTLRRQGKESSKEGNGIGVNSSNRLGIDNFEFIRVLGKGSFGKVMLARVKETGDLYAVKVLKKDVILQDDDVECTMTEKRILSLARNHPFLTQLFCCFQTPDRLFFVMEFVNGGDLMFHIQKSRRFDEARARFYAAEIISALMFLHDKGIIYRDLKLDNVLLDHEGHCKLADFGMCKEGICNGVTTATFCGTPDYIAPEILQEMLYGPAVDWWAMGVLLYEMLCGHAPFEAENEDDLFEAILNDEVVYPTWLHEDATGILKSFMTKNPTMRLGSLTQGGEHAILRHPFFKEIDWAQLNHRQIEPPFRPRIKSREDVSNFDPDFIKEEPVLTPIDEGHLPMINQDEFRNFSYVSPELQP
Chain of Wee1-like protein kinase 2 (Homo sapiens) (P0C1S8 whole entry, looked up): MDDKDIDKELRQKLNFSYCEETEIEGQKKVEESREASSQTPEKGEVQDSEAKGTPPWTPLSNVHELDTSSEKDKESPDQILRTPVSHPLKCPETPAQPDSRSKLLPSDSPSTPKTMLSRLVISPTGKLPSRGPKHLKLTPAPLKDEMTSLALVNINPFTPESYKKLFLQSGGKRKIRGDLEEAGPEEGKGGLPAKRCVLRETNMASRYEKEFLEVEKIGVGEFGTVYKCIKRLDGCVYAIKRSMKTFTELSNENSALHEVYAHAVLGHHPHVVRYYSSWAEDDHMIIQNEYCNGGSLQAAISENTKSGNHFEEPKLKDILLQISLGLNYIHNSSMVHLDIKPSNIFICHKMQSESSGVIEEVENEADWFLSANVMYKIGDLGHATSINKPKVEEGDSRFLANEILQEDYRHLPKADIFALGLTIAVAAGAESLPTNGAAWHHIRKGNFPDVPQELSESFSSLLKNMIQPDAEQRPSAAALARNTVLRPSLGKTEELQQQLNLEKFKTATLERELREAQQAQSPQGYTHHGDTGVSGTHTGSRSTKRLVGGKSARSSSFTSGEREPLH

As to `COc1cc2ncnc(N[C@H](C)c3cccc4ccccc34)c2cc1OC`, the Activity in assay [1] stood at 96%; in assay [2] it was 94%; in assay [3], 66%; in assay [4], 100%; in assay [5], 92%; in [6], 95%. Besides, the Activity stood at 100% in assay [7]; 100% in assay [8]; 92% in [9]; 100% in assay [10]; 100% in assay [11]; 99% in assay [12]. The Activity in assay [13] was 94%; in [14] it was 13%; in assay [15] it was 100%; in assay [16] it was 84%; in [17] it was 96%.
On to `COc1cc2nc(C)nc(N[C@H](C)c3cccc(-c4cn[nH]c4)c3)c2cc1OC`, for which the Activity in [1] turned out to be 85%; in assay [2], 100%; in [3] it was 88%; in assay [4] it was 65%; in assay [5] it was 100%; in assay [6] it was 94%. The Activity in assay [7] came to 65%; in [8], 100%; in assay [9] it was 96%; in assay [10], 95%; in assay [11], 83%; in [12] it was 92%. The Activity in assay [13] was determined as 100%; in assay [14] it was 89%; in assay [15], 59%; in assay [16], 83%; in assay [17] it was 71%.
